Measured values from patent publication US4239744A, “Radioreceptor assay for benzodiazepines in plasma and other biological specimens” (United States of America, priority 1978, dated 1980).

Tested on: binding sites for [^3 H] diazepam (benzodiazepine receptor), rat cerebral cortex synaptosomal membranes
Assay: Radioreceptor assay: inhibition of [3H]diazepam binding to rat synaptosomal membranes by drugs dissolved in plasma
Conditions: for plasma concentration that could be reliably measured by inhibition of [3H]diazepam binding: benzodiazepine dissolved in plasma, assayed in triplicate, from standard curve in figure; for potency rank among the benzodiazepines tested in inhibiting [3H]diazepam binding: four benzodiazepines: clonazepam, N-demethyldiazepam, flurazepam
Description: Blood samples to be assayed are drawn into heparinized tubes and the plasma then separated therefrom by centrifugation at […]. Two-hundred μl of plasma is then pipetted into microtubes, e.g., Eppendorf Microtubes (Brinkman Instruments, Westbury, N.Y.) and diluted 1:10 with water. Samples are mixed by inversion and the plasma precipitated with 50 μl of perchloric acid. The samples are then vortexed briefly and centrifuged in a microcentrifuge, e.g., an Eppendorf Microfuge (Brinkman Instruments, Westbury, N.Y.), for three minutes. Twenty-five μl of the clear supernatant is withdrawn and added to 375 μl of distilled water in 16×125 mm glass tubes. Assays are thereafter performed at 0°-4° C. as follows:
The incubation is terminated after 15 min with a 5 ml wash of ice-cold […] Tris buffer (2-amino-2-hydroxymethyl-1,3-propanediol) at pH 7.4, and immediately filtered through Whatman GF/B filters in a filtering device, e.g., a Millepore filtering bank (Model 1225, Millipore Corp., Bedford, Mass.) The filters are immediately washed with an additional 5 ml of ice-cold buffer. The filters are airdried and suspended in a scintillation fluor, e.g., in 10 ml "Aquasol" (New England Nuclear, Boston, Mass.) and the radiation measured in a liquid scintillation counter, e.g., a Beckman LS-355 liquid scintillation counter.
Standard curves were constructed by adding known amounts of benzodiazepine to plasma, diluting the plasma (1:5 or 1:10) with water, and proceeding in an identical manner to unknown samples. […] The percent inhibition of specific binding by plasma samples is defined as: [formula] […] The slope and intercept of these lines were determined by least mean squares regression analysis and the benzodiazepine concentrations in unknown plasma samples computed from these values.
The synaptosomal membranes suspension described above is prepared as follows:
(a) homogenize rat brains in 20 volumes of ice-cold 0.32 M sucrose (using a Potter-Elvehjern homogenizer);
(b) centrifuge the resulting suspension obtained in step (a) at 1000×g for 10 minutes;
(c) centrifuge the supernatent obtained in step (b) at 20,000×g for 20 minutes; and
(d) resuspend the pellet obtained in step (c) in 40 volumes of Tris buffer to a final protein concentration of approximately 1 mg/ml.

Compound | plasma concentration that could be reliably measured by inhibition of [3H]diazepam binding | potency rank among the benzodiazepines tested in inhibiting [3H]diazepam binding | potency in inhibiting [3H]diazepam binding relative to the parent compound diazepam (from standard curves in figure)
O=C1CN=C(c2ccccc2Cl)c2cc([N+](=O)[O-])ccc2N1 [Clonazepam, clonazepam] | 10 ng/mL | most potent | –
O=C1CN=C(c2ccccc2)c2cc(Cl)ccc2N1 [N-demethyldiazepam] | – | – | about 85%
CCN(CC)CCN1C(=O)CN=C(c2ccccc2F)c2cc(Cl)ccc21 [flurazepam] | approximately 100 ng/ml | least potent | –
